# Laboratory results taken from US20100076015A1, “Aminopyridine Derivatives” (VANTIA LIMITED, priority 2008, published 2010).
# Target: T1, Human KLK1 (Homo sapiens, UniProt P06870)
# T1 construct: purchased Callbiochem (Calbiochem)
# Experiment: Determination of the IC50 for KLK1 (fluorogenic substrate H-DVal-Leu-Arg-AFC)
# Type: biochemical
# Conditions: 37° C.
# Protocol: Determination of the IC50 for KLK1
# KLK1 inhibitory activity in vitro was determined using standard published methods (see e.g. Johansen et al., Int. J. Tiss. Reac. 1986, 8, 185; Shori et al., Biochem. Pharmacol., 1992, 43, 1209; Stürzebecher et al., Biol. Chem. Hoppe-Seyler, 1992, 373, 1025). Human KLK1 (Callbiochem) was incubated at 37° C. with the fluorogenic substrate H-DVal-Leu-Arg-AFC and various concentrations of the test compound. Residual enzyme activity (initial rate of reaction) was determined by measuring the change in optical absorbance at 410 nm and the IC50 value for the test compound was determined.
# T1 sequence (P06870 25-262): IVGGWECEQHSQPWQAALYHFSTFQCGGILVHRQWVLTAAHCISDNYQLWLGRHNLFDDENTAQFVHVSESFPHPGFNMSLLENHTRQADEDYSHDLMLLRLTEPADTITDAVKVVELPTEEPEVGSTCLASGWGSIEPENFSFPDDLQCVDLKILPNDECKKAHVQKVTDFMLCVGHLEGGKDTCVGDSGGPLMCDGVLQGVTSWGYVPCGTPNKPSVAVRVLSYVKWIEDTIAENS
row,SMILES,IC50 [nM]
1,"CCC(C)[C@H](N)C(=O)N[C@@H](Cc1ccc(F)c(F)c1)C(=O)NCc1ccc(N)nc1 (stereo partly drawn) [Example 83, (S)-2-Amino-3-methyl-pentanoic acid [(S)-1-[(6-amino-pyridin-3-ylmethyl)-carbamoyl]-2-(3,4-difluoro-phenyl)-ethyl]-amide]",158
2,"CNC(C)(C)C(=O)N[C@@H](Cc1ccc(F)c(F)c1)C(=O)NCc1ccc(N)nc1 [Example 86, N-[(S)-1-[(6-Amino-pyridin-3-ylmethyl)-carbamoyl]-2-(3,4-difluoro-phenyl)-ethyl]-2-methyl-2-methylamino-propionamide]",15.5
3,"CN1CCCC1C(=O)NC(Cc1c(F)c(F)c(F)c(F)c1F)C(=O)NCc1ccc(N)nc1 [Example 97, (R)-1-Methyl-pyrrolidine-2-carboxylic acid {(S)-1-[(6-amino-pyridin-3-ylmethyl)-carbamoyl]-2-pentafluorophenyl-ethyl}-amide]",45.2
4,"CN1CCC[C@@H]1C(=O)N[C@@H](Cc1cccc(F)c1)C(=O)NCc1ccc(N)nc1 [Example 99, (R)-1-Methyl-pyrrolidine-2-carboxylic acid [(S)-1-[(6-amino-pyridin-3-ylmethyl)-carbamoyl]-2-(3-fluoro-phenyl)-ethyl]-amide]",17.1
5,"COc1ccc(C[C@H](NC(=O)[C@H]2CCCN2C)C(=O)NCc2ccc(N)nc2)cc1 [Example 100, (R)-1-Methyl-pyrrolidine-2-carboxylic acid [(S)-1-[(6-amino-pyridin-3-ylmethyl)-carbamoyl]-2-(4-methoxy-phenyl)-ethyl]-amide]",85.8
6,"CN1CCC[C@@H]1C(=O)N[C@@H](Cc1ccccc1)C(=O)NCc1ccc(N)nc1 [Example 101, (R)-1-Methyl-pyrrolidine-2-carboxylic acid {(S)-1-[(6-amino-pyridin-3-ylmethyl)-carbamoyl]-2-phenyl-ethyl}-amide]",24.1
7,"CN1CCC[C@@H]1C(=O)N[C@@H](Cc1ccc(C(C)(C)C)cc1)C(=O)NCc1ccc(N)nc1 [Example 102, (R)-1-Methyl-pyrrolidine-2-carboxylic acid [(S)-1-[(6-amino-pyridin-3-ylmethyl)-carbamoyl]-2-(4-tert-butyl-phenyl)-ethyl]-amide]",258
8,"Cc1ccccc1C[C@H](NC(=O)[C@H]1CCCN1C)C(=O)NCc1ccc(N)nc1 [Example 104, (R)-1-Methyl-pyrrolidine-2-carboxylic acid {(S)-1-[(6-amino-pyridin-3-ylmethyl)-carbamoyl]-2-o-tolyl-ethyl}-amide]",24.4
9,"COc1cccc(C[C@H](NC(=O)[C@H]2CCCN2C)C(=O)NCc2ccc(N)nc2)c1 [Example 107, (R)-1-Methyl-pyrrolidine-2-carboxylic acid [(S)-1-[(6-amino-pyridin-3-ylmethyl)-carbamoyl]-2-(3-methoxy-phenyl)-ethyl]-amide]",71.2
10,"CN1CCC[C@@H]1C(=O)N[C@@H](Cc1ccccc1F)C(=O)NCc1ccc(N)nc1 [Example 108, (R)-1-Methyl-pyrrolidine-2-carboxylic acid [(S)-1-[(6-amino-pyridin-3-ylmethyl)-carbamoyl]-2-(2-fluoro-phenyl)-ethyl]-amide]",34
11,"CN1CCC[C@@H]1C(=O)N[C@@H](Cc1ccccc1Cl)C(=O)NCc1ccc(N)nc1 [Example 109, (R)-1-Methyl-pyrrolidine-2-carboxylic acid [(S)-1-[(6-amino-pyridin-3-ylmethyl)-carbamoyl]-2-(2-chloro-phenyl)-ethyl]-amide]",21.7
12,"CN1CCC[C@@H]1C(=O)N[C@@H](Cc1ccccc1C(F)(F)F)C(=O)NCc1ccc(N)nc1 [Example 111, (R)-1-Methyl-pyrrolidine-2-carboxylic acid [(S)-1-[(6-amino-pyridin-3-ylmethyl)-carbamoyl]-2-(2-trifluoromethyl-phenyl)-ethyl]-amide]",15
13,"CN1CCC[C@@H]1C(=O)N[C@@H](Cc1ccncc1)C(=O)NCc1ccc(N)nc1 [Example 112, (R)-1-Methyl-pyrrolidine-2-carboxylic acid {(S)-1-[(6-amino-pyridin-3-ylmethyl)-carbamoyl]-2-pyridin-4-yl-ethyl}-amide]",257
14,"CN1CCC[C@@H]1C(=O)N[C@@H](Cc1ccc2ccccc2n1)C(=O)NCc1ccc(N)nc1 [Example 114, (R)-1-Methyl-pyrrolidine-2-carboxylic acid {(S)-1-[(6-amino-pyridin-3-ylmethyl)-carbamoyl]-2-quinolin-2-yl-ethyl}-amide]",28.4
15,"CN1CCC[C@@H]1C(=O)N[C@@H](CC1CCCCC1)C(=O)NCc1ccc(N)nc1 [Example 115, (R)-1-Methyl-pyrrolidine-2-carboxylic acid {(S)-1-[(6-amino-pyridin-3-ylmethyl)-carbamoyl]-2-cyclohexyl-ethyl}-amide]",19.5
16,"CN1CCC[C@H]1C(=O)N[C@@H](Cc1ccc(F)c(F)c1)C(=O)NCc1ccc(N)nc1 [Example 116, (S)-1-Methyl-pyrrolidine-2-carboxylic acid [(S)-1-[(6-amino-pyridin-3-ylmethyl)-carbamoyl]-2-(3,4-difluoro-phenyl)-ethyl]-amide]",16.1

# These reach a lower IC50. Values come first.
row,IC50 [nM],SMILES
1,8,"CN[C@H](C)C(=O)N[C@@H](Cc1ccc(F)c(F)c1)C(=O)NCc1ccc(N)nc1 [Example 84, (R)—N-[(S)-1-[(6-Amino-pyridin-3-ylmethyl)-carbamoyl]-2-(3,4-difluoro-phenyl)-ethyl]-2-methylamino-propionamide]"
2,13.9,"CN[C@@H](C)C(=O)N[C@@H](Cc1ccc(F)c(F)c1)C(=O)NCc1ccc(N)nc1 [Example 85, (S)—N-[(S)-1-[(6-Amino-pyridin-3-ylmethyl)-carbamoyl]-2-(3,4-difluoro-phenyl)-ethyl]-2-methylamino-propionamide]"
3,6.4,"CN[C@H](C)C(=O)N[C@@H](Cc1ccc(F)cc1)C(=O)NCc1ccc(N)nc1 [Example 87, (R)—N-[(S)-1-[(6-Amino-pyridin-3-ylmethyl)-carbamoyl]-2-(4-fluoro-phenyl)-ethyl]-2-methylamino-propionamide]"
4,6.7,"CN[C@@H](C)C(=O)N[C@@H](Cc1ccc(F)cc1)C(=O)NCc1ccc(N)nc1 [Example 88, (S)—N-[(S)-1-[(6-Amino-pyridin-3-ylmethyl)-carbamoyl]-2-(4-fluoro-phenyl)-ethyl]-2-methylamino-propionamide]"
5,11,"CN[C@@H](C(=O)N[C@@H](Cc1ccc(F)cc1)C(=O)NCc1ccc(N)nc1)C(C)C [Example 89, (R)—N-[(S)-1-[(6-Amino-pyridin-3-ylmethyl)-carbamoyl]-2-(4-fluoro-phenyl)-ethyl]-3-methyl-2-methylamino-butyramide]"
6,0.85,"CN1CCC[C@@H]1C(=O)N[C@@H](Cc1ccc(Cl)cc1)C(=O)NCc1ccc(N)nc1 [Example 93, (R)-1-Methyl-pyrrolidine-2-carboxylic acid [(S)-1-[(6-amino-pyridin-3-ylmethyl)-carbamoyl]-2-(4-chloro-phenyl)-ethyl]-amide]"
7,12.5,"CN1CCC[C@@H]1C(=O)N[C@@H](Cc1cc(F)c(F)cc1F)C(=O)NCc1ccc(N)nc1 [Example 94, (R)-1-Methyl-pyrrolidine-2-carboxylic acid [(S)-1-[(6-amino-pyridin-3-ylmethyl)-carbamoyl]-2-(2,4,5-trifluoro-phenyl)-ethyl]-amide]"
8,1.8,"CN1CCC[C@@H]1C(=O)N[C@@H](Cc1csc2ccccc12)C(=O)NCc1ccc(N)nc1 [Example 95, (R)-1-Methyl-pyrrolidine-2-carboxylic acid {(S)-1-[(6-amino-pyridin-3-ylmethyl)-carbamoyl]-2-benzo[b]thiophen-3-yl-ethyl}-amide]"
9,5.5,"CN1CCC[C@@H]1C(=O)N[C@@H](Cc1cc(F)cc(F)c1)C(=O)NCc1ccc(N)nc1 [Example 96, (R)-1-Methyl-pyrrolidine-2-carboxylic acid [(S)-1-[(6-amino-pyridin-3-ylmethyl)-carbamoyl]-2-(3,5-difluoro-phenyl)-ethyl]-amide]"
10,1.3,"CN1CCC[C@@H]1C(=O)N[C@@H](Cc1ccc(F)cc1)C(=O)NCc1ccc(N)nc1 [Example 98, (R)-1-Methyl-pyrrolidine-2-carboxylic acid [(S)-1-[(6-amino-pyridin-3-ylmethyl)-carbamoyl]-2-(4-fluoro-phenyl)-ethyl]-amide]"
11,5.4,"CN1CCC[C@@H]1C(=O)N[C@@H](Cc1cccc(Cl)c1)C(=O)NCc1ccc(N)nc1 [Example 103, (R)-1-Methyl-pyrrolidine-2-carboxylic acid [(S)-1-[(6-amino-pyridin-3-ylmethyl)-carbamoyl]-2-(3-chloro-phenyl)-ethyl]-amide]"
12,3.8,"Cc1cccc(C[C@H](NC(=O)[C@H]2CCCN2C)C(=O)NCc2ccc(N)nc2)c1 [Example 105, (R)-1-Methyl-pyrrolidine-2-carboxylic acid {(S)-1-[(6-amino-pyridin-3-ylmethyl)-carbamoyl]-2-m-tolyl-ethyl}-amide]"
13,3.9,"Cc1ccc(C[C@H](NC(=O)[C@H]2CCCN2C)C(=O)NCc2ccc(N)nc2)cc1 [Example 106, (R)-1-Methyl-pyrrolidine-2-carboxylic acid {(S)-1-[(6-amino-pyridin-3-ylmethyl)-carbamoyl]-2-p-tolyl-ethyl}-amide]"
14,4,"CN1CCC[C@@H]1C(=O)N[C@@H](Cc1ccc(Cl)cc1Cl)C(=O)NCc1ccc(N)nc1 [Example 110, (R)-1-Methyl-pyrrolidine-2-carboxylic acid [(S)-1-[(6-amino-pyridin-3-ylmethyl)-carbamoyl]-2-(2,4-dichloro-phenyl)-ethyl]-amide]"
15,14.5,"CN1CCC[C@@H]1C(=O)N[C@@H](Cc1c[nH]c2ccccc12)C(=O)NCc1ccc(N)nc1 [Example 113, (R)-1-Methyl-pyrrolidine-2-carboxylic acid [(S)-1-[(6-amino-pyridin-3-ylmethyl)-carbamoyl]-2-(1H-indol-3-yl)-ethyl]-amide]"
